In patent US20230398130A1, “METHODS AND COMPOSITIONS FOR DIFFERENTIATING STEM CELLS” (Massachusetts Institute of Technology, priority 2020, published 2023):

Legend:
ISC-enriched organoids [1] = test: Primary screen, 384-well 2.5-D organoid differentiation (ENR+CD, 6 days): basal lysozyme secretion (LYZ.NS); type: cell-based, murine; settings: for Dose.FC.LYZ.NS (log 2 fold change, basal lysozyme secretion) / Dose.FC.LYZ.NS (log 2 fold change): vs plate median; for Dose.FC.LYZ.NS: FC vs plate median; for Z.LYZ.NS: standard z score of FC
Text: (§1) High-throughput screening.

ISC-enriched organoids [2] = test: Primary screen, 384-well 2.5-D organoid differentiation (ENR+CD, 6 days): carbachol-induced lysozyme secretion (LYZ.S); type: cell-based, murine; settings: for Dose.FC.LYZ.S (log 2 fold change, carbachol-induced lysozyme secretion) / Dose.FC.LYZ.S (log 2 fold change): vs plate median; for Dose.FC.LYZ.S: FC vs plate median
Text: as §1

ISC-enriched organoids [3] = test: Primary screen, 384-well 2.5-D organoid differentiation (ENR+CD, 6 days, Target Selective Inhibitor Library, vs whole-plate median): ATP (CellTiter-Glo 3D, CTG); settings: for Dose.FC.CTG (log 2 fold change, ATP) / Dose.FC.CTG (log 2 fold change): vs plate median; for Dose.FC.CTG: FC vs plate median; for Z.CTG: standard z score of FC

Molecule: COc1cc2ncnc(Nc3ccc(Cl)cc3F)c2cc1OC [ZM 306416]
- Z.LYZ.NS (standard z score) (ISC-enriched organoids [1]; dose 0.08 uM): 0.912
- Dose.FC.LYZ.NS (log 2 fold change, basal lysozyme secretion) (ISC-enriched organoids [1]; dose 0.08 uM): 0.105
- Z.LYZ.NS (standard z score) (ISC-enriched organoids [1]; dose 0.40 uM): −1.942
- Dose.FC.LYZ.NS (log 2 fold change, basal lysozyme secretion) (ISC-enriched organoids [1]; dose 0.40 uM): −0.223
- Z.LYZ.NS (standard z score) (ISC-enriched organoids [1]; dose 2.00 uM): −2.531
- Dose.FC.LYZ.NS (log 2 fold change, basal lysozyme secretion) (ISC-enriched organoids [1]; dose 2.00 uM): −0.291
- Z.LYZ.NS (standard z score) (ISC-enriched organoids [1]; dose 10.00 uM): −2.395
- Dose.FC.LYZ.NS (log 2 fold change, basal lysozyme secretion) (ISC-enriched organoids [1]; dose 10.00 uM): −0.275
- Dose.FC.LYZ.S (log 2 fold change, carbachol-induced lysozyme secretion) (ISC-enriched organoids [2]; dose 0.08 uM): 0.006
- Dose.FC.LYZ.S (log 2 fold change, carbachol-induced lysozyme secretion) (ISC-enriched organoids [2]; dose 0.40 uM): −0.288
- Dose.FC.LYZ.S (log 2 fold change, carbachol-induced lysozyme secretion) (ISC-enriched organoids [2]; dose 2.00 uM): −0.403
- Dose.FC.LYZ.S (log 2 fold change, carbachol-induced lysozyme secretion) (ISC-enriched organoids [2]; dose 10.00 uM): −0.431
- Z.CTG (standard z score) (ISC-enriched organoids [3]; dose 0.08 uM): −0.190
- Dose.FC.CTG (log 2 fold change, ATP) (ISC-enriched organoids [3]; dose 0.08 uM): −0.080
- Z.CTG (standard z score) (ISC-enriched organoids [3]; dose 0.40 uM): −1.155
- Dose.FC.CTG (log 2 fold change, ATP) (ISC-enriched organoids [3]; dose 0.40 uM): −0.483
- Z.CTG (standard z score) (ISC-enriched organoids [3]; dose 2.00 uM): −3.135
- Dose.FC.CTG (log 2 fold change, ATP) (ISC-enriched organoids [3]; dose 2.00 uM): −1.312
- Z.CTG (standard z score) (ISC-enriched organoids [3]; dose 10.00 uM): −3.559
- Dose.FC.CTG (log 2 fold change, ATP) (ISC-enriched organoids [3]; dose 10.00 uM): −1.490

Molecule: OG-L002
- Dose.FC.LYZ.NS (ISC-enriched organoids [1]; Dose 0.08 uM, primary screen): 0.000 log 2 fold change
- Z.LYZ.NS (ISC-enriched organoids [1]; Dose 0.08 uM): −0.001
- Dose.FC.LYZ.NS (ISC-enriched organoids [1]; Dose 0.40 uM, primary screen): −0.011 log 2 fold change
- Z.LYZ.NS (ISC-enriched organoids [1]; Dose 0.40 uM): −0.097
- Dose.FC.LYZ.NS (ISC-enriched organoids [1]; Dose 2.00 uM, primary screen): 0.021 log 2 fold change
- Z.LYZ.NS (ISC-enriched organoids [1]; Dose 2.00 uM): 0.182
- Dose.FC.LYZ.NS (ISC-enriched organoids [1]; Dose 10.00 uM, primary screen): −0.091 log 2 fold change
- Z.LYZ.NS (ISC-enriched organoids [1]; Dose 10.00 uM): −0.790
- Dose.FC.LYZ.S (ISC-enriched organoids [2]; Dose 0.08 uM, primary screen): 0.023 log 2 fold change
- Dose.FC.LYZ.S (ISC-enriched organoids [2]; Dose 0.40 uM, primary screen): 0.026 log 2 fold change
- Dose.FC.LYZ.S (ISC-enriched organoids [2]; Dose 2.00 uM, primary screen): −0.001 log 2 fold change
- Dose.FC.LYZ.S (ISC-enriched organoids [2]; Dose 10.00 uM, primary screen): −0.084 log 2 fold change
- Dose.FC.CTG (ISC-enriched organoids [3]; Dose 0.08 uM, primary screen): 0.094 log 2 fold change
- Z.CTG (ISC-enriched organoids [3]; Dose 0.08 uM): 0.225
- Dose.FC.CTG (ISC-enriched organoids [3]; Dose 0.40 uM, primary screen): 0.138 log 2 fold change
- Z.CTG (ISC-enriched organoids [3]; Dose 0.40 uM): 0.329
- Dose.FC.CTG (ISC-enriched organoids [3]; Dose 2.00 uM, primary screen): 0.128 log 2 fold change
- Z.CTG (ISC-enriched organoids [3]; Dose 2.00 uM): 0.306
- Dose.FC.CTG (ISC-enriched organoids [3]; Dose 10.00 uM, primary screen): 0.094 log 2 fold change
- Z.CTG (ISC-enriched organoids [3]; Dose 10.00 uM): 0.225

Molecule: O=S(=O)(c1ccccc1)c1cnc2c(N3CCNCC3)cccc2c1 [SB742457]
- Z.LYZ.NS (standard z score) (ISC-enriched organoids [1]; Dose 0.08 uM, primary screen): 0.108
- Dose.FC.LYZ.NS (log 2 fold change) (ISC-enriched organoids [1]; Dose 0.08 uM, primary screen): 0.012
- Z.LYZ.NS (standard z score) (ISC-enriched organoids [1]; Dose 0.40 uM, primary screen): −0.537
- Dose.FC.LYZ.NS (log 2 fold change) (ISC-enriched organoids [1]; Dose 0.40 uM, primary screen): −0.062
- Z.LYZ.NS (standard z score) (ISC-enriched organoids [1]; Dose 2.00 uM, primary screen): 0.598
- Dose.FC.LYZ.NS (log 2 fold change) (ISC-enriched organoids [1]; Dose 2.00 uM, primary screen): 0.069
- Z.LYZ.NS (standard z score) (ISC-enriched organoids [1]; Dose 10.00 uM, primary screen): 0.115
- Dose.FC.LYZ.NS (log 2 fold change) (ISC-enriched organoids [1]; Dose 10.00 uM, primary screen): 0.013
- Dose.FC.LYZ.S (log 2 fold change) (ISC-enriched organoids [2]; Dose 0.08 uM, primary screen): −0.055
- Dose.FC.LYZ.S (log 2 fold change) (ISC-enriched organoids [2]; Dose 0.40 uM, primary screen): −0.029
- Dose.FC.LYZ.S (log 2 fold change) (ISC-enriched organoids [2]; Dose 2.00 uM, primary screen): −0.003
- Dose.FC.LYZ.S (log 2 fold change) (ISC-enriched organoids [2]; Dose 10.00 uM, primary screen): −0.006
- Z.CTG (standard z score) (ISC-enriched organoids [3]; Dose 0.08 uM, primary screen): −0.693
- Dose.FC.CTG (log 2 fold change) (ISC-enriched organoids [3]; Dose 0.08 uM, primary screen): −0.290
- Z.CTG (standard z score) (ISC-enriched organoids [3]; Dose 0.40 uM, primary screen): −0.300
- Dose.FC.CTG (log 2 fold change) (ISC-enriched organoids [3]; Dose 0.40 uM, primary screen): −0.126
- Z.CTG (standard z score) (ISC-enriched organoids [3]; Dose 2.00 uM, primary screen): −0.423
- Dose.FC.CTG (log 2 fold change) (ISC-enriched organoids [3]; Dose 2.00 uM, primary screen): −0.177
- Z.CTG (standard z score) (ISC-enriched organoids [3]; Dose 10.00 uM, primary screen): −0.702
- Dose.FC.CTG (log 2 fold change) (ISC-enriched organoids [3]; Dose 10.00 uM, primary screen): −0.294

Molecule: COc1cc(Nc2ncc(F)c(Nc3ccc4c(n3)N(COP(=O)(O)O)C(=O)C(C)(C)O4)n2)cc(OC)c1OC [Fostamatinib (R788)]
- Dose.FC.LYZ.NS (ISC-enriched organoids [1]; Dose 0.08 uM, ENR+CD, 6 days): 0.119 log 2 fold change
- Z.LYZ.NS (ISC-enriched organoids [1]; Dose 0.08 uM): 1.033
- Dose.FC.LYZ.NS (ISC-enriched organoids [1]; Dose 0.40 uM, ENR+CD, 6 days): −0.025 log 2 fold change
- Z.LYZ.NS (ISC-enriched organoids [1]; Dose 0.40 uM): −0.217
- Dose.FC.LYZ.NS (ISC-enriched organoids [1]; Dose 2.00 uM, ENR+CD, 6 days): −0.099 log 2 fold change
- Z.LYZ.NS (ISC-enriched organoids [1]; Dose 2.00 uM): −0.860
- Dose.FC.LYZ.NS (ISC-enriched organoids [1]; Dose 10.00 uM, ENR+CD, 6 days): −0.234 log 2 fold change
- Z.LYZ.NS (ISC-enriched organoids [1]; Dose 10.00 uM): −2.036
- Dose.FC.LYZ.S (ISC-enriched organoids [2]; Dose 0.08 uM, ENR+CD, 6 days): 0.235 log 2 fold change
- Dose.FC.LYZ.S (ISC-enriched organoids [2]; Dose 0.40 uM, ENR+CD, 6 days): 0.156 log 2 fold change
- Dose.FC.LYZ.S (ISC-enriched organoids [2]; Dose 2.00 uM, ENR+CD, 6 days): −0.015 log 2 fold change
- Dose.FC.LYZ.S (ISC-enriched organoids [2]; Dose 10.00 uM, ENR+CD, 6 days): −0.350 log 2 fold change
- Dose.FC.CTG (ISC-enriched organoids [3]; Dose 0.08 uM, ENR+CD, 6 days): 0.232 log 2 fold change
- Z.CTG (ISC-enriched organoids [3]; Dose 0.08 uM): 0.554
- Dose.FC.CTG (ISC-enriched organoids [3]; Dose 0.40 uM, ENR+CD, 6 days): −0.052 log 2 fold change
- Z.CTG (ISC-enriched organoids [3]; Dose 0.40 uM): −0.123
- Dose.FC.CTG (ISC-enriched organoids [3]; Dose 2.00 uM, ENR+CD, 6 days): −0.231 log 2 fold change
- Z.CTG (ISC-enriched organoids [3]; Dose 2.00 uM): −0.552
- Dose.FC.CTG (ISC-enriched organoids [3]; Dose 10.00 uM, ENR+CD, 6 days): −0.881 log 2 fold change
- Z.CTG (ISC-enriched organoids [3]; Dose 10.00 uM): −2.105
